This is an account of results in patent EP0535104B1, “HETEROCYCLIC COMPOUNDS AND THEIR PREPARATION AND USE” (NOVO NORDISK A/S, priority 1990, dated 1992).

The experiment relates to benzodiazepine receptors. Put plainly: in vivo displacement of radioactive labelled flunitrazepam from benzodiazepine receptors. As to conditions: dose which causes the specific binding of flunitrazepam to benzodiazepine receptors in a living brain to be reduced to 50% of the control value; test as described in US 4,774,245. The source says:
The pharmaceutical properties of the compounds of the invention can be illustrated by determining their capability for displacing radioactive labelled flunitrazepam from benzodiazepine receptors.
The displacement activity of the compounds of the invention may be found by determining the ED50 value. The ED50 value represents the dose (mg/kg) of a test substance which causes the specific binding of flunitrazepam to benzodiazepine receptors in a living brain to be reduced to 50% of the control value.
Such an in vivo test is carried out as described in US 4,774,245.
Usually ED50 stands for the dose at which the effect has come halfway, by size or by number of responders. For the compound `CN(C)c1nc2ccccc2n2cnc(-c3noc(C4CC4)n3)c12.Cl` [Compound 4, 3-(5-cyclopropyl-1,2,4-oxadiazol-3-yl)-4-dimethylamino-imidazo[1,5-a]quinoxaline hydrochloride], the 50% effective dose (ED50) was 4.1 mg/kg.

Regarding `CN(C)c1nc2c(-c3noc(C4CC4)n3)ncn2c2ccccc12` [Compound 13, 3-(5-cyclopropyl-1,2,4-oxadiazol-3-yl)-5-dimethylamino-imidazo[1,5-a]quinazoline], the 50% effective dose (ED50) was 1.5 mg/kg.

For the compound `c1ccc2c(c1)c(N1CCOCC1)nc1c(-c3noc(C4CC4)n3)ncn12` [Compound 14, 3-(5-cyclopropyl-1,2,4-oxadiazol-3-yl)-5-morpholino-imidazo[1,5-a]quinazoline], the median effective dose (ED50) amounted to 1.9 mg/kg.

`c1ccc2c(c1)c(N1CCOCC1)nc1c(-c3nc(C4CC4)no3)ncn12` [Compound 19, 3-(3-cyclopropyl-1,2,4-oxadiazol-5-yl)-5-morpholino-imidazo[1,5-a]quinazoline]: the median effective dose (ED50) came out at 1.6 mg/kg.
